{"source": "paper PMC6030077", "about": "“Dual role of HDAC10 in lysosomal exocytosis and DNA repair promotes neuroblastoma chemoresistance” (Scientific Reports, 2018)", "key": {"BE(2)-C cells [1]": {"test_system": "BE(2)-C cells", "experiment": "Flow cytometric analysis of LysoTracker DND-99 staining (lysosomal accumulation)", "assay_type": "cell-based, human", "conditions": "24 h treatment", "method": "Six days after siRNA transfection or 24 h after treatment with HDAC or lysosomal inhibitors, cells were stained for 1 h with 50 nM LysoTracker® Red DND-99 in medium under standard cell culture conditions. Cells were washed with ice-cold RPMI w/o phenol-red and detached using Trypsin/EDTA for 3 minutes at 37 °C. Cells were centrifuged, resuspended in RPMI w/o phenol red and LysoTracker® Red fluorescence was quantified on a BD FACSCanto II platform using the PE filter setting."}, "HDAC6 [2]": {"target": "T1, HDAC6 (Homo sapiens, UniProt Q9UBN7)", "T1 sequence (Q9UBN7 1-1215)": "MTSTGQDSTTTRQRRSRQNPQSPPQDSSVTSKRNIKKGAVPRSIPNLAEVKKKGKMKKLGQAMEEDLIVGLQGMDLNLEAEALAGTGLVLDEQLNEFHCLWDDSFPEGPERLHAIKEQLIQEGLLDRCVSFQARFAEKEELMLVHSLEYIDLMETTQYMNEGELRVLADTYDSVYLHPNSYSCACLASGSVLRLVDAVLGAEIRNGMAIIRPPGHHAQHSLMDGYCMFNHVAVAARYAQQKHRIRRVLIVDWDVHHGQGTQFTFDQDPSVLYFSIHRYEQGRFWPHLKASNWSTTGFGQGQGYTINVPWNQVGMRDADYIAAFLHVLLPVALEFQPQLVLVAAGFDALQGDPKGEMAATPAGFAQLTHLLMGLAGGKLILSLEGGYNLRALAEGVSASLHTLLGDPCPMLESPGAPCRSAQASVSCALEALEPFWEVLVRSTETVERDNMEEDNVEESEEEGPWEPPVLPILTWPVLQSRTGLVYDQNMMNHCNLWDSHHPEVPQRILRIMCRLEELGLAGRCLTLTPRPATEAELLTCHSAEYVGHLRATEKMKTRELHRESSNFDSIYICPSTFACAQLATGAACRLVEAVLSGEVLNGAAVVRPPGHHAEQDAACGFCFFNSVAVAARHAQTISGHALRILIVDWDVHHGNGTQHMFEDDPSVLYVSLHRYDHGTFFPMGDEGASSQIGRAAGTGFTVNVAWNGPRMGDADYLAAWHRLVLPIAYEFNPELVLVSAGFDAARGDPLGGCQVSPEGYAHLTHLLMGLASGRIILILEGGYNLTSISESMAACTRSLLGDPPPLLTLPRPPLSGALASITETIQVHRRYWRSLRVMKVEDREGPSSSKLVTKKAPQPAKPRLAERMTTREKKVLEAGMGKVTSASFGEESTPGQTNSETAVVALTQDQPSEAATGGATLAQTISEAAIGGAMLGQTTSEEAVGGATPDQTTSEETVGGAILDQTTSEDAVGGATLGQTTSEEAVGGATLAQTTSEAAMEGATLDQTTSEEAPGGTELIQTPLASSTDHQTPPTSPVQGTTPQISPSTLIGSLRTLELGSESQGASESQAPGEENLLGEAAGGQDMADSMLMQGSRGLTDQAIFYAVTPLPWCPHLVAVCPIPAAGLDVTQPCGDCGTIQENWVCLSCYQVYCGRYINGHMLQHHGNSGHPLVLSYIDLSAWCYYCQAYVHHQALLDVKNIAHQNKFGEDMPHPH", "experiment": "In-cell target engagement (NanoBRET) assay, NanoLuc-HDAC6", "assay_type": "binding", "conditions": "HeLa cells stably transfected with NanoLuc-HDAC6, 2 h", "method": "(§1) HeLa cells, stabily transfected with NanoBRET plasmids NanoLuc®-HDAC6 FL Fusion Vector and NanoLuc®-HDAC10 FL Fusion Vector (Promega, Madison, WI, USA) were seeded at 20.000 cells/well in white 96 well plates. Without further incubation, tracer (0.3 µM) and drugs were added in separate steps and plates were placed in a tissue culture incubator for 2 h. For NanoBRET quantification, plates were put at room temperature for 10 minutes. Nanoglow substrate, diluted in OptiMEM without phenol red, was added and measured within 10 minutes in an OPTIMA plate reader (460 nm emission for donor and 610LP filter for acceptor). The BRET signal was calculated by the ratio of acceptor signal and donor signal."}, "HDAC10": {"target": "T2, HDAC10 (Homo sapiens, UniProt Q969S8)", "T2 construct": "NanoLuc®-HDAC10 FL Fusion Vector; host or cells: HeLa cells, stably transfected", "T2 sequence (Q969S8 1-669)": "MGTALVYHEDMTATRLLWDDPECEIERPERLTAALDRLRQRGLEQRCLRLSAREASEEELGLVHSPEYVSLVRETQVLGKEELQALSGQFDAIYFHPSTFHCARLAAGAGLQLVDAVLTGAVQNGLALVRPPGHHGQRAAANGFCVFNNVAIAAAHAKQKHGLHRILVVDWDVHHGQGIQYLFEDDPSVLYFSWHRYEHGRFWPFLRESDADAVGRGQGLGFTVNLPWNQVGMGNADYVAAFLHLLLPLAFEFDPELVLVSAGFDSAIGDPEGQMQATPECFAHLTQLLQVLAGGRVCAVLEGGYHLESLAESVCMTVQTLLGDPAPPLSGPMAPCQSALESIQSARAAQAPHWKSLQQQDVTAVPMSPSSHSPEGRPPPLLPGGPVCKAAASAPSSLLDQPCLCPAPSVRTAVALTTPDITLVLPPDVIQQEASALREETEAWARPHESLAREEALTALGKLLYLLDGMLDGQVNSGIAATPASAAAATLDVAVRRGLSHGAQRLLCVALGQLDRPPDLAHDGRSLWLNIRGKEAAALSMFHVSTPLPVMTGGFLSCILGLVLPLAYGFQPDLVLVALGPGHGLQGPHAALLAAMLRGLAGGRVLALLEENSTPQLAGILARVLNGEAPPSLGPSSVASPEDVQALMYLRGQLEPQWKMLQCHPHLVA", "experiment": "In-cell target engagement (NanoBRET) assay, NanoLuc-HDAC10", "assay_type": "binding", "description": "We next investigated if accumulation of lysosomes was also affected by inhibition of HDAC6 and HDAC10, respectively. […] Since no bona fide downstream target protein of HDAC10 has been described to date, we performed an in-cell target engagement (NanoBRET) assay that measures competitive displacement of a fluorescently-labeled tracer from NanoLuc® Luciferase coupled HDAC10 enzyme. […] To exclude that lysosomal accumulation after treatment with HDAC6/10 inhibitors was caused by off-target inhibition of class I HDACs, we treated BE(2)-C cells with 1 mM class I HDAC inhibitor valproic acid (VPA).\nas §1"}, "HDAC6 [3]": {"test_system": "HDAC6", "experiment": "Western blot analysis of tubulin K40 acetylation as a marker for HDAC6 inhibition", "assay_type": "cell-based, human", "conditions": "24 h treatment", "method": "Western blot analysis was performed as previously described. The following antibodies were used: anti-HDAC6 (sc-11420, Santa Cruz), anti-HDAC10 (H3413, Sigma), anti-acetylated histone H3 (06-911, Merck Millipore), anti-histone H3 (9715, Cell Signaling Technology, Cambridge UK), anti-LAMP-1 (H4A3, DHSB, Iowa City, IA, USA), anti-LAMP-2 (H4B4; Santa Cruz Biotechnology), anti-acetylated tubulin (6–11B-1; Sigma), anti-tubulin (2148, Cell Signaling Technology), anti P-glycoprotein (13978 S, Cell Signaling Technology) and anti-β-actin (clone AC-15; Sigma)."}, "BE(2)-C cells [4]": {"test_system": "BE(2)-C cells", "experiment": "Flow cytometric quantification of intracellular doxorubicin accumulation, BE(2)-C", "assay_type": "cell-based, human", "conditions": "100 ng/ml doxorubicin, 24 h co-treatment", "method": "For flow cytometric quantification of intracellular doxorubicin after HDAC6/10 inhibition, BE(2)-C, SK-N-AS, IMR-32, HAP1 wild type and HDAC10 knockout cells were seeded in 6-well dishes at a density of 1.5 ∗ 10^5 cells/well (BE(2)-C and SK-N-AS, HAP1) and 3 ∗ 10^5 cells/well (IMR-32). Cells were treated with 25 ng/ml, 50 ng/ml, 100 ng/ml or 1 µg/ml doxorubicin, respectively, for 3–48 h (see respective figure legend). Where indicated, cells were co-treated with HDAC6/10 or lysosomal inhibitors. In case of co-treatment with vacuolin-1, vacuolin-1 was directly added to cells under doxorubicin treatment 1 h or 24 h prior to analysis. Flow cytometric quantification of intracellular doxorubicin after HDAC6, HDAC10 or P-glycoprotein knockdown in BE(2)-C cells was performed 5 days (P-glycoprotein) or 6 days (HDAC6/10) after transfection with siRNA. To that end, cells were seeded 3–4 days after transfection into 6-well dishes at 1.5 ∗ 10^5 cells per well and treated with 100 ng/ml doxorubicin +/− HDAC6/10 and lysosomal inhibitors for the last 24 h. After doxorubicin treatment, BE(2)-C, SK-N-AS, IMR-32 and HAP1 cells were washed with ice-cold RPMI w/o phenol-red and detached using Trypsin/EDTA for 3 minutes at 37 °C. Cells were centrifuged, resuspended in RPMI w/o phenol red and doxorubicin fluorescence was quantified on a BD FACSCanto II platform using the PE filter setting."}}, "data": [{"smiles": "CN1C(=O)C2CN(Cc3c2c2ccccc2n3Cc2ccc(C(=O)NO)cc2)C1=O", "note": "(stereo not shown) [Marbostat-100]", "values": [{"measurement": "concentrations at which LysoTracker staining is increased", "setting": "BE(2)-C cells [1]", "value": "above 1 µM"}, {"measurement": "EC50", "setting": "BE(2)-C cells [1]; read-out: LysoTracker staining EC50", "value": 6600, "unit": "nM"}, {"measurement": "IC50", "setting": "HDAC6 [2]", "value": 2.21, "unit": "nM"}, {"measurement": "concentrations at which HDAC10 is inhibited (NanoBRET)", "setting": "HDAC10", "value": "above 150 nM"}, {"measurement": "IC50", "setting": "HDAC10; HeLa cells stably transfected with NanoLuc-HDAC10, 2 h", "value": 564, "unit": "nM"}, {"measurement": "concentrations inducing tubulin acetylation", "setting": "HDAC6 [3]", "value": "≥ 50", "unit": "nM"}, {"measurement": "concentrations at which intracellular doxorubicin levels are increased", "setting": "BE(2)-C cells [4]", "value": "≥ 5", "unit": "µM"}]}]}
